Earlier results in US20200352901A1, “TETRAHYDROCANNABINOL MODULATORS” (priority 2017, published 2020).
Where two headings read alike, the source gives them in different places.

Experiments:
[1] = target: T1, CYP1A2 (Homo sapiens, UniProt P05177); conditions: read-out: IC(50) for CYP1A2 inhibition
T1 sequence (P05177 1-516): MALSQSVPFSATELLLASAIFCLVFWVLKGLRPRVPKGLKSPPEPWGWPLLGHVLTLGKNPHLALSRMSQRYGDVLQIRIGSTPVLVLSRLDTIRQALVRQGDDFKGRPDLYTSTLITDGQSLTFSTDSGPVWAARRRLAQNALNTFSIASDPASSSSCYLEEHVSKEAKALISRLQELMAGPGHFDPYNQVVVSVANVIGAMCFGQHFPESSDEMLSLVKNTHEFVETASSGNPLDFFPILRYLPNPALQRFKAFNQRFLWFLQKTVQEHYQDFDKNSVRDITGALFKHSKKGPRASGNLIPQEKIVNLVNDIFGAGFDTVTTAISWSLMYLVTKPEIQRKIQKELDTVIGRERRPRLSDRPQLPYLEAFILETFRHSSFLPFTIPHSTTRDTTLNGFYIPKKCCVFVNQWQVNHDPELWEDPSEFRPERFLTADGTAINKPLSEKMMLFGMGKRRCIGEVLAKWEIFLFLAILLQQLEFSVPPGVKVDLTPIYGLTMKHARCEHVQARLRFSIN

[2] = target: T2, CYP2C9 (Homo sapiens, UniProt P11712); conditions: read-out: IC(50) for CYP2C9 inhibition
[3] = target: T3, CYP3A4 (Homo sapiens, UniProt P08684); conditions: read-out: IC(50) for CYP3A4 inhibition
[4] = target: T4, human CB2 receptor (Homo sapiens, UniProt P34972); conditions: cells expressing human CB2 receptor; radioligand binding; read-out: Binding affinity to CB2
[5] = target: T5, CB1 (Homo sapiens, UniProt P21554); conditions: read-out: Binding affinity to CB1
Target sequence in this assay (P21554 whole entry): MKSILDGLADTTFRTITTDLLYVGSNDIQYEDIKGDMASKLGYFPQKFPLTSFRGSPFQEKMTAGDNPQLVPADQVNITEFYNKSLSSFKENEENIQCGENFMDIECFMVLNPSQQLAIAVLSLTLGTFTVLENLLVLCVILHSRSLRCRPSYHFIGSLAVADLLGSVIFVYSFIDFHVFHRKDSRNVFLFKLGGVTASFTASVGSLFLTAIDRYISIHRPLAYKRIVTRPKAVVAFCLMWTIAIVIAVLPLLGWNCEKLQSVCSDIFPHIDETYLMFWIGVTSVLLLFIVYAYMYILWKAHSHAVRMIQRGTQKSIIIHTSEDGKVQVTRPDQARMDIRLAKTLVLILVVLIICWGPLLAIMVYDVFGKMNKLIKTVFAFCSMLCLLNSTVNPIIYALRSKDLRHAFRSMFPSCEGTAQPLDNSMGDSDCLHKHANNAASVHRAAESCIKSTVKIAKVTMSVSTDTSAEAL

[6] = target: T5, CB1
Target sequence in this assay (P21554 whole entry): as above

[7] = target: T4, human CB2 receptor
[8] = target: T6, UGT1A10 (Homo sapiens, UniProt Q9HAW8); conditions: extrahepatic isoform UGT1A10
T6 sequence (Q9HAW8 26-530): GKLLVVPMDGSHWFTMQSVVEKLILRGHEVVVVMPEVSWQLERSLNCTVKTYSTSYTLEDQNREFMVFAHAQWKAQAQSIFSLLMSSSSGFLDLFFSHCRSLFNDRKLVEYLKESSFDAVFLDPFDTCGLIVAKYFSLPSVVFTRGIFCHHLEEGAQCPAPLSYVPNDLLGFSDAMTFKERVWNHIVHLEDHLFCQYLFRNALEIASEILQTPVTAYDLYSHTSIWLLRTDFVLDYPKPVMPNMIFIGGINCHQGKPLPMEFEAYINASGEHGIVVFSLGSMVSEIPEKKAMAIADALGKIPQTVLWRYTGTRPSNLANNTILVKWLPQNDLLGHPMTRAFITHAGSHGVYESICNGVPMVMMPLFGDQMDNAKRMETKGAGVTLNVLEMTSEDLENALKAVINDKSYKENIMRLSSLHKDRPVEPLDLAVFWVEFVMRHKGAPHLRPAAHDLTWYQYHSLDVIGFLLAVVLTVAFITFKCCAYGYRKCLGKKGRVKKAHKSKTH

[9] = target: T3, CYP3A4; conditions: standard substrate of CYP3A4
[10] = target: T7, CYP2C8 (Homo sapiens, UniProt P10632); conditions: standard substrate of CYP2C8
T7 sequence (P10632 1-490): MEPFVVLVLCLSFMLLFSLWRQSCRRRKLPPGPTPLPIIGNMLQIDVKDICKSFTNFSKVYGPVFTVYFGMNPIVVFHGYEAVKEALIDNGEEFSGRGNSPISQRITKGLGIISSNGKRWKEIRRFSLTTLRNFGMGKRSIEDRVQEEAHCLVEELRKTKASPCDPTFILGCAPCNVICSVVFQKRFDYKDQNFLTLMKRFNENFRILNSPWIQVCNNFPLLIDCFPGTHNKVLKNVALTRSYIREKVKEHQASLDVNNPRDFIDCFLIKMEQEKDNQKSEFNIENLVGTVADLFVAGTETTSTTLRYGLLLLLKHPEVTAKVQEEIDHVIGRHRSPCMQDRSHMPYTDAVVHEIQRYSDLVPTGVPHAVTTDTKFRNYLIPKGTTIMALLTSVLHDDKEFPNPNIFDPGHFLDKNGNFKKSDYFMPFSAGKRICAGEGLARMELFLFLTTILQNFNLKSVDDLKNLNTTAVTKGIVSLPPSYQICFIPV

[11] = target: CYP2B6 (Homo sapiens, UniProt P20813); conditions: standard substrate of CYP2B6
[12] = target: T8, UGT1A9 (Homo sapiens, UniProt O60656); conditions: at 200 micromolar carvacrol; test substrate 4-methylumbelliferone
T8 sequence (O60656 26-530): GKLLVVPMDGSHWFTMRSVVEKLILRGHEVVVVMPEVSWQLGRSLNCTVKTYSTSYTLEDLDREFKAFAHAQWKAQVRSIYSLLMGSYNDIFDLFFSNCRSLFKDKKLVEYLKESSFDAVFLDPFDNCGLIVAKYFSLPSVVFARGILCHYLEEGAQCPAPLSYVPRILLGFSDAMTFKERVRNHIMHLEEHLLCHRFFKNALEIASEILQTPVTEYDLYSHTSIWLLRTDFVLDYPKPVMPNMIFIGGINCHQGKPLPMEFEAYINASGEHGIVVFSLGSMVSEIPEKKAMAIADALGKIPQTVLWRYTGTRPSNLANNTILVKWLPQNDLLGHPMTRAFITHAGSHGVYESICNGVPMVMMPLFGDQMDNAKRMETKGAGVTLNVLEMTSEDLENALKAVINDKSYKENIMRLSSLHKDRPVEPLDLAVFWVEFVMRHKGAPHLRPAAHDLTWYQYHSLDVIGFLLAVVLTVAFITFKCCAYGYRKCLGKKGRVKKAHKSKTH

[13] = target: CYP2A6 (Homo sapiens, UniProt P11509); conditions: standard substrate of CYP2A6
[14] = target: T5, CB1; remark: listed apart in the source
Target sequence in this assay (P21554 whole entry, species assumed): as the sequence (P21554 whole entry) above

[15] = target: T2, CYP2C9; conditions: standard substrate of CYP2C9
[16] = target: CYP2D6 (Homo sapiens, UniProt P10635); conditions: standard substrate of CYP2D6
Chain of CYP2D6 (P10635 whole entry): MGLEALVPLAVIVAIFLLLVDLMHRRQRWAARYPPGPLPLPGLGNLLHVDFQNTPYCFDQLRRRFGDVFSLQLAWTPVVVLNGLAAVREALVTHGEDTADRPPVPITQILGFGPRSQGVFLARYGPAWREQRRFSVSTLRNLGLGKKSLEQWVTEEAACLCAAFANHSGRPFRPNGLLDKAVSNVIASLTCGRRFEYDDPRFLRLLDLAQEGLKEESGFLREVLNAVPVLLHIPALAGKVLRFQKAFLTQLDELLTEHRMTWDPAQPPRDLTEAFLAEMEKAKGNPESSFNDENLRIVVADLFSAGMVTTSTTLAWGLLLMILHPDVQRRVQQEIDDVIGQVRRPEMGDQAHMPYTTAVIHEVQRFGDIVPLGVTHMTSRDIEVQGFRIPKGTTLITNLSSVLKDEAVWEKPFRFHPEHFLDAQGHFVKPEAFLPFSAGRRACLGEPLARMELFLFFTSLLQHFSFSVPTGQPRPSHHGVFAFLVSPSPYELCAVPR

T4 sequence (P34972 whole entry): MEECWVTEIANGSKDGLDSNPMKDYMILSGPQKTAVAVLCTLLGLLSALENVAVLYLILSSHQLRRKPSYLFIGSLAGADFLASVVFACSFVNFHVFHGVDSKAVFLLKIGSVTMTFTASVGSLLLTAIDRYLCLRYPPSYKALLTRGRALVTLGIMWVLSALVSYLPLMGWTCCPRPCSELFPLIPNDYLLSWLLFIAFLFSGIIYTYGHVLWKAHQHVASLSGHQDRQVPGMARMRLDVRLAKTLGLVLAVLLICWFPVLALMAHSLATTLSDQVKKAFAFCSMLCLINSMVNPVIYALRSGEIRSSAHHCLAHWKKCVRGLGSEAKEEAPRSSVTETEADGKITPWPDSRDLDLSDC
T2 sequence (P11712 whole entry): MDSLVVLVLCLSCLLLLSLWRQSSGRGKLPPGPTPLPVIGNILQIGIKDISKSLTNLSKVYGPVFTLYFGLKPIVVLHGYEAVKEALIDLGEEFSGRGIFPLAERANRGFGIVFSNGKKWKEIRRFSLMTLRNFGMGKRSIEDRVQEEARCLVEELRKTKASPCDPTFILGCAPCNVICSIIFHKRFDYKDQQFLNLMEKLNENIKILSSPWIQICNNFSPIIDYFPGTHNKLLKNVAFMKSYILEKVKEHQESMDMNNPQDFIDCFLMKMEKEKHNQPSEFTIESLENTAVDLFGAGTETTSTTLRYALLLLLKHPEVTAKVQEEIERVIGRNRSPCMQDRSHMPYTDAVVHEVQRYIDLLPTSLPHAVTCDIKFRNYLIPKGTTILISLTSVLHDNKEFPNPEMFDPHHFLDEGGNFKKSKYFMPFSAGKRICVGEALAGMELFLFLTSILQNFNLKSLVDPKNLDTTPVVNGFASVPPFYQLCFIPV
T3 sequence (P08684 whole entry): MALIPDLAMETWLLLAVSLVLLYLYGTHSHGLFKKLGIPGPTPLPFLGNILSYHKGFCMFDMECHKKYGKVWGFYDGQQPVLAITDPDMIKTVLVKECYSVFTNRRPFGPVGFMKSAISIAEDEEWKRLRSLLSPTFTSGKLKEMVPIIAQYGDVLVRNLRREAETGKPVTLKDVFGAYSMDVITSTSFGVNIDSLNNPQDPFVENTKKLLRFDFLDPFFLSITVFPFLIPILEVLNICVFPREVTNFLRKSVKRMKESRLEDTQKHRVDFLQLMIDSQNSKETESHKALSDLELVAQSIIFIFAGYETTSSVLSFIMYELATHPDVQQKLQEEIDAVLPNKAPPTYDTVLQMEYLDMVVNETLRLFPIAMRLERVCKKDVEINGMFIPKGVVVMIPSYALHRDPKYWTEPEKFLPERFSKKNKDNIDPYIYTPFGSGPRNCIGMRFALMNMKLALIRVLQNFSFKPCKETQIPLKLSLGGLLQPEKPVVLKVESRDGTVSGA
Chain of CYP2B6 (P20813 whole entry): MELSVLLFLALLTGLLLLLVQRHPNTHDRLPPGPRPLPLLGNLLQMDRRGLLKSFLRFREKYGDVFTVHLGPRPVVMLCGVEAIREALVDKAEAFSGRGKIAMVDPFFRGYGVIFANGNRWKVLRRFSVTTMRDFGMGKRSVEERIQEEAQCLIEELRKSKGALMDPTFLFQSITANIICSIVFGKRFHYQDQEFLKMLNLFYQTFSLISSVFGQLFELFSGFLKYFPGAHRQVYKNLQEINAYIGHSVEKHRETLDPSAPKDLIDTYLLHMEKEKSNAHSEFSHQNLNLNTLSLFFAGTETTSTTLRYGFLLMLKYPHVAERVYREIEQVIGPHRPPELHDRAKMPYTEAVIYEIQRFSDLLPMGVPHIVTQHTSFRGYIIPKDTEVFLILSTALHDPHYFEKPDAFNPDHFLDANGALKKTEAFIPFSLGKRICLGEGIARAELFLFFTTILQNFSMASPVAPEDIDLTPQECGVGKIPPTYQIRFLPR
Chain of CYP2A6 (P11509 whole entry): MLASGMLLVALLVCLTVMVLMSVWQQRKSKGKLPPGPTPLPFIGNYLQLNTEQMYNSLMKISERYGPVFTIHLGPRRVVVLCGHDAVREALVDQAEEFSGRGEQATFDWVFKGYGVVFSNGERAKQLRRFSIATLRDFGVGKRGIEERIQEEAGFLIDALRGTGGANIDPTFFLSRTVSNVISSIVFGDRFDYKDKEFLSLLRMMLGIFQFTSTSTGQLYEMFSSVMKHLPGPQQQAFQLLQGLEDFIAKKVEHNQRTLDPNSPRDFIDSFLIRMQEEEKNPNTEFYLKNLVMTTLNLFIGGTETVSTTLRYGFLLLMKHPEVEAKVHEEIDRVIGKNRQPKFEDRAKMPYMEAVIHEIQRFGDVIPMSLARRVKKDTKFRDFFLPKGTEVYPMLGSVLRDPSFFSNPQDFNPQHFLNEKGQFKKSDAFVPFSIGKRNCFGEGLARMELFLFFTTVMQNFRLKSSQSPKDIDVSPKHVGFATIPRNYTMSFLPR

For `CC(C)=C1C[C@@H]2O[C@@]2(C)CC/C=C(\C)CC1=O` [Compound 7, (4S,5S)-(−)-germacrone-4,5-epoxide], the IC50 [1] is listed as 33.2 ± 3.6 µM, the IC50 [2] is listed as 7.6 ± 2.5 µM and the IC50 [3] is listed as 1 ± 0.2 µM.
In the case of `C=C1CCC2C(c3c(O)cc(CCCCC)cc3OC2(C)C)C1O` (single isomer, unassigned) [Compound 5, 10-alpha-hydroxy-delta-9,11-hexahydro-cannabinol], the Ki [4] is given as 0.129 µM and the Ki [5] is given as 0.117 µM.
In the case of `COc1cc(/C=C/C(=O)CC(=O)/C=C/c2ccc(O)c(OC)c2)ccc1O` [Compound 11, curcumin], the IC50 [1] is given as > 100 µM.
For `CCCCCc1cc(O)c2c(c1)OC(C)(C)C1CC=C(C)C(O)C21` (stereo not drawn) [Compound 3, 10-alpha-hydroxy-delta-8-THC], the “Functional character at CB1” value [6] is given as “partial agonist”, the Ki [4] is given as 0.03 µM and the “Functional character at CB2” value [7] is given as “partial agonist”. For the same compound, the Ki [5] was 0.031 µM.
For `CCCCCc1cc(O)c2c(c1)OC(C)(C)c1ccc(C)cc1-2` [CBN, cannabinol], the Km [8] is listed as 55 µM.
For `CCCCCc1cc(O)c2c(c1)OC(C)(C)C1CC(O)C(C)=CC21` (single isomer, unassigned) [Compound 1, 8-alpha-hydroxy-delta-9-THC], the Ki [4] is given as 3.22 µM and the Ki [5] is given as 1.91 µM.
In the case of `Cc1ncc2n1-c1ccc(Cl)cc1C(c1ccccc1F)=NC2` [midazolam], the Km [9] is listed as 1.8 µM.
For `CCN(CC)Cc1cc(Nc2ccnc3cc(Cl)ccc23)ccc1O` [amodiaquine], the Km [10] is listed as 0.9 µM.
For `CC(NC(C)(C)C)C(=O)c1cccc(Cl)c1` (stereo not shown) [bupropion], the Km [11] is listed as 137 µM.
For `Cc1ccc(C(C)C)cc1O` [carvacrol], the “4-methylumbelliferone glucuronidation activity remaining” value [12] is listed as 20 % maximal activity.
In the case of `COc1cc(/C=C/C(O)=C/C(=O)/C=C/c2ccc(O)cc2)ccc1O` [Compound 12, demethoxycurcumin], the IC50 [1] is listed as 34 ± 14.2 µM, the IC50 [2] is listed as 1.4 ± 0.2 µM and the IC50 [3] is listed as 7 ± 1.7 µM.
For `O=c1ccc2ccccc2o1` [coumarin], the Km [13] is given as 1 µM.
For `CCCCCc1cc(O)c2c(c1)OC(C)(C)[C@@H]1CCC(CO)=C[C@@H]21` [Compound 11-OH-THC, 11-hydroxy-delta-9-tetrahydrocannabinol], the “Functional character at CB1” value [14] is listed as “agonists” and the Km [8] is listed as 16 µM.
For `C=C1CCC2C(c3c(O)cc(CCCCC)cc3OC2(C)C)C1O` (single isomer, unassigned) [Compound 4, 10-beta-hydroxy-delta-9,11-hexahydro-cannabinol], the Ki [4] is given as 3.27 µM and the Ki [5] is given as 0.83 µM.
For `O=C(O)Cc1ccccc1Nc1c(Cl)cccc1Cl` [diclofenac], the Km [15] is given as 3.5 µM.
For `CCCCCc1cc(O)c2c(c1)OC(C)(C)[C@@H]1CC=C(CO)C[C@@H]21` [11-hydroxy-delta-8-THC], the “Functional character at CB1” value [14] is given as “agonists”.
For `C[C@]12CC[C@H]3[C@@H](CCC4=CC(=O)CC[C@@]43C)[C@@H]1CC[C@@H]2O` [testosterone], the Km [9] is listed as 64 µM.
In the case of `CCCCCc1cc(O)c2c(c1)OC(C)(C)C1CC(O)C(C)=CC21` (single isomer, unassigned) [Compound 2, 8-beta-hydroxy-delta-9-THC], the Ki [4] is given as 0.088 µM and the Ki [5] is given as 0.065 µM.
For `COc1ccc2c(c1)[C@]13CCCC[C@@H]1[C@H](C2)N(C)CC3` [dextromorphone], the Km [16] is listed as 5 µM.
